The molecules below were run on MCH receptors (assay: MCH receptor activity class (method not given)). Details: activity class per percent of control at 10^-7 M or IC50.
In the case of CN(C)c1nc(N[C@H]2CC[C@@H](CNC(=O)C3c4ccccc4Oc4ccccc43)CC2)nc2c1CCCC2 [compound 1083], the class is reported as 3 (Class 3 The value of percent of control at 10^−7 M was more than 60% or the value of IC50 was more than 200 nM.).
In the case of CN(C)c1nc(N[C@H]2CC[C@@H](CNC(=O)Cc3csc4ccccc34)CC2)nc2c1CCCC2 [compound 1084], the class is reported as 3 (Class 3 The value of percent of control at 10^−7 M was more than 60% or the value of IC50 was more than 200 nM.).
COc1cccc(OC)c1CN[C@H]1CC[C@@H](Nc2cc(N(C)C)c3ccccc3n2)CC1 [compound 1085] was tested, and the class was 3 (Class 3 The value of percent of control at 10^−7 M was more than 60% or the value of IC50 was more than 200 nM.).
For CCOc1ccccc1CN[C@H]1CC[C@@H](Nc2cc(N(C)C)c3ccccc3n2)CC1 [compound 1086], the class was 3 (Class 3 The value of percent of control at 10^−7 M was more than 60% or the value of IC50 was more than 200 nM.).
CN(C)c1cc(N[C@H]2CC[C@@H](NCc3c[nH]c4ccccc34)CC2)nc2ccccc12 [compound 1087] was tested, and the class was 3 (Class 3 The value of percent of control at 10^−7 M was more than 60% or the value of IC50 was more than 200 nM.).
With COc1ccc(OC)c(CN[C@H]2CC[C@@H](Nc3cc(N(C)C)c4ccccc4n3)CC2)c1 [compound 1088] the class was 3 (Class 3 The value of percent of control at 10^−7 M was more than 60% or the value of IC50 was more than 200 nM.).
For COc1ccc(CN[C@H]2CC[C@@H](Nc3cc(N(C)C)c4ccccc4n3)CC2)c2ccccc12 [compound 1089], the class was 3 (Class 3 The value of percent of control at 10^−7 M was more than 60% or the value of IC50 was more than 200 nM.).
In the case of COc1ccc2[nH]cc(CN[C@H]3CC[C@@H](Nc4cc(N(C)C)c5ccccc5n4)CC3)c2c1 [compound 1090], the class is reported as 3 (Class 3 The value of percent of control at 10^−7 M was more than 60% or the value of IC50 was more than 200 nM.).
With COc1ccc2ccccc2c1CN[C@H]1CC[C@@H](Nc2cc(N(C)C)c3ccccc3n2)CC1 [compound 1091] the class was 3 (Class 3 The value of percent of control at 10^−7 M was more than 60% or the value of IC50 was more than 200 nM.).
COc1cc(Br)cc(CN[C@H]2CC[C@@H](Nc3cc(N(C)C)c4ccccc4n3)CC2)c1O [compound 1092] was tested, and the class was 3 (Class 3 The value of percent of control at 10^−7 M was more than 60% or the value of IC50 was more than 200 nM.).
In the case of CN(C)c1cc(N[C@H]2CC[C@@H](NCc3c[nH]c4ccc(Br)cc34)CC2)nc2ccccc12 [compound 1093], the class is reported as 3 (Class 3 The value of percent of control at 10^−7 M was more than 60% or the value of IC50 was more than 200 nM.).
With COc1ccc(CN[C@H]2CC[C@@H](Nc3cc(N(C)C)c4ccccc4n3)CC2)c(OC)c1 [compound 1094] the class was 3 (Class 3 The value of percent of control at 10^−7 M was more than 60% or the value of IC50 was more than 200 nM.).
COc1ccc(CN[C@H]2CC[C@@H](Nc3cc(N(C)C)c4ccccc4n3)CC2)c(OC)c1OC [compound 1095] was tested, and the class was 3 (Class 3 The value of percent of control at 10^−7 M was more than 60% or the value of IC50 was more than 200 nM.).
In the case of COc1cc(CN[C@H]2CC[C@@H](Nc3cc(N(C)C)c4ccccc4n3)CC2)cc(OC)c1O [compound 1096], the class is reported as 3 (Class 3 The value of percent of control at 10^−7 M was more than 60% or the value of IC50 was more than 200 nM.).
In the case of CCOc1cc(CN[C@H]2CC[C@@H](Nc3cc(N(C)C)c4ccccc4n3)CC2)ccc1OC [compound 1097], the class is reported as 3 (Class 3 The value of percent of control at 10^−7 M was more than 60% or the value of IC50 was more than 200 nM.).
For CN(C)c1cc(N[C@H]2CC[C@@H](NCc3c[nH]nc3-c3ccc(C(F)(F)F)cc3)CC2)nc2ccccc12 [compound 1098], the class was 3 (Class 3 The value of percent of control at 10^−7 M was more than 60% or the value of IC50 was more than 200 nM.).
In the case of COc1cc(CN[C@H]2CC[C@@H](Nc3cc(N(C)C)c4ccccc4n3)CC2)cc(OC)c1OC [compound 1099], the class is reported as 3 (Class 3 The value of percent of control at 10^−7 M was more than 60% or the value of IC50 was more than 200 nM.).
For COc1cc(CN[C@H]2CC[C@@H](Nc3cc(N(C)C)c4ccccc4n3)CC2)cc(OC)c1 [compound 1101], the class was 3 (Class 3 The value of percent of control at 10^−7 M was more than 60% or the value of IC50 was more than 200 nM.).
With COc1cc(CN[C@H]2CC[C@@H](Nc3cc(N(C)C)c4ccccc4n3)CC2)cc(I)c1O [compound 1102] the class was 3 (Class 3 The value of percent of control at 10^−7 M was more than 60% or the value of IC50 was more than 200 nM.).
For Cc1cc(CN[C@H]2CC[C@@H](Nc3cc(N(C)C)c4ccccc4n3)CC2)cc(C)c1O [compound 1103], the class was 3 (Class 3 The value of percent of control at 10^−7 M was more than 60% or the value of IC50 was more than 200 nM.).
With COc1cccc(CN[C@H]2CC[C@@H](Nc3cc(N(C)C)c4ccccc4n3)CC2)c1 [compound 1104] the class was 3 (Class 3 The value of percent of control at 10^−7 M was more than 60% or the value of IC50 was more than 200 nM.).
With CN(C)c1cc(N[C@H]2CC[C@@H](NCc3ccc(F)c(Br)c3)CC2)nc2ccccc12 [compound 1105] the class was 3 (Class 3 The value of percent of control at 10^−7 M was more than 60% or the value of IC50 was more than 200 nM.).
With Cc1ccc2occ(CN[C@H]3CC[C@@H](Nc4cc(N(C)C)c5ccccc5n4)CC3)c(=O)c2c1 [compound 1107] the class was 3 (Class 3 The value of percent of control at 10^−7 M was more than 60% or the value of IC50 was more than 200 nM.).
In the case of Cc1cc(C)c2occ(CN[C@H]3CC[C@@H](Nc4cc(N(C)C)c5ccccc5n4)CC3)c(=O)c2c1 [compound 1108], the class is reported as 3 (Class 3 The value of percent of control at 10^−7 M was more than 60% or the value of IC50 was more than 200 nM.).
With Cc1cc(CN[C@H]2CC[C@@H](Nc3cc(N(C)C)c4ccccc4n3)CC2)c(C)n1-c1ccccc1 [compound 1109] the class was 3 (Class 3 The value of percent of control at 10^−7 M was more than 60% or the value of IC50 was more than 200 nM.).
With CC(CN[C@H]1CC[C@@H](Nc2cc(N(C)C)c3ccccc3n2)CC1)c1ccccc1 (stereo partly drawn) [compound 1110, N4,N4-dimethyl-N2-{cis-4-[(2-phenylpropyl)amino]cyclohexy}quinoline-2,4-diamine] the class was 3 (Class 3 The value of percent of control at 10^−7 M was more than 60% or the value of IC50 was more than 200 nM.).
With CCCCC/C(=C\c1ccccc1)CN[C@H]1CC[C@@H](Nc2cc(N(C)C)c3ccccc3n2)CC1 [compound 1111] the class was 3 (Class 3 The value of percent of control at 10^−7 M was more than 60% or the value of IC50 was more than 200 nM.).
With COc1ccccc1/C=C/CN[C@H]1CC[C@@H](Nc2cc(N(C)C)c3ccccc3n2)CC1 [compound 1112] the class was 3 (Class 3 The value of percent of control at 10^−7 M was more than 60% or the value of IC50 was more than 200 nM.).
For CN(C)c1cc(N[C@H]2CC[C@@H](NCc3coc4ccc(Cl)cc4c3=O)CC2)nc2ccccc12 [compound 1113], the class was 3 (Class 3 The value of percent of control at 10^−7 M was more than 60% or the value of IC50 was more than 200 nM.).
CN(C)c1cc(N[C@H]2CC[C@@H](NCc3cncc(-c4ccc(F)cc4)c3)CC2)nc2ccccc12 [compound 1114] was tested, and the class was 3 (Class 3 The value of percent of control at 10^−7 M was more than 60% or the value of IC50 was more than 200 nM.).
CCOC(=O)c1[nH]c2cc(Cl)cc(Cl)c2c1CN[C@H]1CC[C@@H](Nc2cc(N(C)C)c3ccccc3n2)CC1 [compound 1115] was tested, and the class was 1 (Class 1: The value of percent of control at 10^−7 M was less than 40% or the value of IC50 was less than 50 nM.).
With COC(=O)c1ccccc1Sc1nc2sccn2c1CN[C@H]1CC[C@@H](Nc2cc(N(C)C)c3ccccc3n2)CC1 [compound 1116] the class was 3 (Class 3 The value of percent of control at 10^−7 M was more than 60% or the value of IC50 was more than 200 nM.).
For CN(C)c1cc(N[C@H]2CC[C@@H](NCc3c[nH]nc3-c3ccc(F)cc3)CC2)nc2ccccc12 [compound 1117], the class was 3 (Class 3 The value of percent of control at 10^−7 M was more than 60% or the value of IC50 was more than 200 nM.).
In the case of CSc1ccc(CN[C@H]2CC[C@@H](Nc3cc(N(C)C)c4ccccc4n3)CC2)cc1 [compound 1118], the class is reported as 3 (Class 3 The value of percent of control at 10^−7 M was more than 60% or the value of IC50 was more than 200 nM.).
For CN(C)c1cc(N[C@H]2CC[C@@H](NCc3cccc4ccccc34)CC2)nc2ccccc12 [compound 1119], the class was 3 (Class 3 The value of percent of control at 10^−7 M was more than 60% or the value of IC50 was more than 200 nM.).
COc1cc(CN[C@H]2CC[C@@H](Nc3cc(N(C)C)c4ccccc4n3)CC2)ccc1O [compound 1120] was tested, and the class was 3 (Class 3 The value of percent of control at 10^−7 M was more than 60% or the value of IC50 was more than 200 nM.).
In the case of CN(C)c1cc(N[C@H]2CC[C@@H](NCc3ccc(F)c(Cl)c3)CC2)nc2ccccc12 [compound 1121], the class is reported as 3 (Class 3 The value of percent of control at 10^−7 M was more than 60% or the value of IC50 was more than 200 nM.).
For COc1cccc(OC)c1CNC[C@H]1CC[C@@H](Nc2cc(N(C)C)c3ccccc3n2)CC1 [compound 1122], the class was 2 (Class 2: The value of percent of control at 10^−7 M was from 40% to 60% or the value of IC′50 was from 50 nM to 200 nM.).
CCOc1ccccc1CNC[C@H]1CC[C@@H](Nc2cc(N(C)C)c3ccccc3n2)CC1 [compound 1123] was tested, and the class was 2 (Class 2: The value of percent of control at 10^−7 M was from 40% to 60% or the value of IC′50 was from 50 nM to 200 nM.).
CN(C)c1cc(N[C@H]2CC[C@@H](CNCc3c[nH]c4ccccc34)CC2)nc2ccccc12 [compound 1124] was tested, and the class was 3 (Class 3 The value of percent of control at 10^−7 M was more than 60% or the value of IC50 was more than 200 nM.).
COc1ccc(OC)c(CNC[C@H]2CC[C@@H](Nc3cc(N(C)C)c4ccccc4n3)CC2)c1 [compound 1125] was tested, and the class was 3 (Class 3 The value of percent of control at 10^−7 M was more than 60% or the value of IC50 was more than 200 nM.).
In the case of COc1ccc(CNC[C@H]2CC[C@@H](Nc3cc(N(C)C)c4ccccc4n3)CC2)c2ccccc12 [compound 1126], the class is reported as 2 (Class 2: The value of percent of control at 10^−7 M was from 40% to 60% or the value of IC′50 was from 50 nM to 200 nM.).
With COc1ccc2[nH]cc(CNC[C@H]3CC[C@@H](Nc4cc(N(C)C)c5ccccc5n4)CC3)c2c1 [compound 1127] the class was 3 (Class 3 The value of percent of control at 10^−7 M was more than 60% or the value of IC50 was more than 200 nM.).
